Measurements from the NIST ThermoML archive (doi:10.1021/je9008014).
± gives the expanded uncertainty stated by the source.

Tests used:
[1] = 101 kPa, Liquid; for mass density: Pycnometric method
[2] = xn = mol fraction of the nth substance listed; settings: 101 kPa, Liquid, x2 = 0

Row | SMILES | viscosity ([1]; 293.15 K) [mPa·s] | mass density ([1]; 293.15 K) [kg/m3] | viscosity ([1]; 298.15 K) [mPa·s] | mass density ([1]; 298.15 K) [kg/m3] | viscosity ([1]; 303.15 K) [mPa·s] | mass density ([1]; 303.15 K) [kg/m3] | mass density ([1]; 308.15 K) [kg/m3] | viscosity ([1]; 313.15 K) [mPa·s] | mass density ([1]; 313.15 K) [kg/m3] | viscosity ([1]; 323.15 K) [mPa·s] | mass density ([1]; 323.15 K) [kg/m3] | viscosity ([1]; 333.15 K) [mPa·s] | mass density ([1]; 333.15 K) [kg/m3] | viscosity ([2]; 293.15 K) [mPa·s] | viscosity ([2]; 303.15 K) [mPa·s] | viscosity ([2]; 313.15 K) [mPa·s] | viscosity ([2]; 323.15 K) [mPa·s] | mass density ([2]; 333.15 K, Pycnometric method) [kg/m3] | viscosity ([2]; 333.15 K) [mPa·s]
1 | CCOCCOCCOCCO [2-(2-(2-ethoxyethoxy)ethoxy)ethanol] | 7.796 ± 0.16 | 1020.6 ± 2.1 | 6.739 ± 0.14 | 1016.3 ± 2.1 | 5.657 ± 0.12 | 1011.9 ± 2.1 | 1008.1 ± 2.1 | 4.185 ± 0.094 | 1003.9 ± 2.1 | 3.326 ± 0.076 | 995.5 ± 2 | 2.627 ± 0.061 | 986.7 ± 2 |  |  |  |  |  | 
2 | O [water] + CCOCCOCCOCCO |  |  |  |  |  |  |  |  |  |  |  |  |  | 1.005 ± 0.025 | 0.8007 ± 0.02 | 0.656 ± 0.017 | 0.5494 ± 0.015 | 983.2 ± 2 | 0.4688 ± 0.013
